Calls of active or inactive are those of the source. No cut-off for these calls is given here.
Columns and labels:
[1] = Toxicity in Balb/C nude mouse xenografted with A549/Taxol assessed as effect on lung at 15 mg/kg, ip measured after 14 days by H and E staining based analysis; assay type: organism-based, A549/TR; conditions: in vivo, 336 h, time 14 day
[2] = Tmax in mouse at 15 mg/kg, po measured upto 24 hrs by LC-MS/MS analysis; assay type: ADME, organism-based; conditions: in vivo
[3] = Toxicity in ICR mouse assessed as lethal dose administered as IP dose measured upto 14 days; conditions: in vivo, time < 14 day
[4] = Stability in mouse plasma assessed as half life at 1 uM measured upto 120 mins by LC-MS/MS analysis; assay type: ADME, cell-free
[5] = Toxicity in Balb/C nude mouse xenografted with A549/Taxol assessed as effect on spleen at 15 mg/kg, ip measured after 14 days by H and E staining based analysis; assay type: organism-based, A549/TR; conditions: in vivo, 336 h, time 14 day
[6] = AUC (0 to infinity) in mouse at 3 mg/kg, iv measured upto 24 hrs by LC-MS/MS analysis; assay type: ADME, organism-based; conditions: in vivo
[7] = Toxicity in Balb/C nude mouse xenografted with A549/Taxol assessed as adverse effect at 15 mg/kg, ip measured after 14 days; assay type: organism-based, A549/TR; conditions: in vivo, 336 h, time 14 day
A549 = assay: Antiproliferative activity against human A549 assessed as inhibition of cell growth measured after 48 hrs by MTT assay; assay type: functional, cell-based; conditions: A549, 48 h
MCF7 [8] = assay: Induction of apoptosis in human MCF7 cells measured after 48 hrs by annexin-FITC and propidium iodide staining based flow cytometry analysis; assay type: functional, cell-based; conditions: dose 10-40 nM
A549/TR = assay: Antiproliferative activity against paclitaxel resistant human A549/Taxol cells assessed as inhibition of cell growth measured after 48 hrs by MTT assay; assay type: functional, cell-based
[9] = Toxicity in Balb/C nude mouse assessed as abnormalities in heart at 7.5 to 15 mg/kg, ip measured after 14 days by H and E staining based analysis; assay type: organism-based; conditions: in vivo, 336 h, dose 7.5-15 mg/kg, time 14 day
MGC-803 = assay: Antiproliferative activity against human MGC-803 assessed as inhibition of cell growth measured after 48 hrs by MTT assay; assay type: functional, cell-based; conditions: MGC-803, 48 h
[10] = Toxicity in Balb/C nude mouse assessed as abnormalities in spleen at 7.5 to 15 mg/kg, ip measured after 14 days by H and E staining based analysis; assay type: organism-based; conditions: in vivo, 336 h, dose 7.5-15 mg/kg, time 14 day
MDA-MB-231 [11] = assay: Antitumor activity against human MDA-MB-231 cells xenografted in BALB/c nude mouse model assessed as inhibition of tumor growth weight administered as IP dose measured after 14 days; assay type: functional; conditions: dose 7.5-15 mg/kg, time 14.0 day
PANC-1 = assay: Antiproliferative activity against human PANC-1 assessed as inhibition of cell growth measured after 48 hrs by MTT assay; assay type: functional, cell-based; conditions: PANC-1, 48 h
[12] = MRT (0 to infinity) in mouse at 3 mg/kg, iv measured upto 24 hrs by LC-MS/MS analysis; assay type: ADME, organism-based; conditions: in vivo
HeLa = assay: Antiproliferative activity against human HeLa assessed as inhibition of cell growth measured after 48 hrs by MTT assay; assay type: functional, cell-based
MCF7 [13] = assay: Induction of apoptosis in human MCF7 cells assessed as late apoptotic cells at 40 nM measured after 48 hrs by annexin-FITC and propidium iodide staining based flow cytometry analysis (reference value: 3.93%); assay type: functional
MCF7 [14] = assay: Effect on katanin p60 protein level in katanin knockdown human MCF7 cells measured after 48 to 72 hrs by immunoblot analysis; assay type: functional, cell-based; conditions: time 48-72 hrs
[15] = Toxicity in Balb/C nude mouse xenografted with A549/Taxol assessed as effect on liver at 15 mg/kg, ip measured after 14 days by H and E staining based analysis; assay type: organism-based, A549/TR; conditions: in vivo, 336 h, time 14 day
MDA-MB-231 [16] = assay: Inhibition of cell migration in human MDA-MB-231 cells assessed as delay in wound healing at 10 to 20 nM by inverted microscopy based analysis; assay type: functional; conditions: dose 10-20 nM
[17] = Half life in mouse at 3 mg/kg, iv measured upto 24 hrs by LC-MS/MS analysis; assay type: ADME, organism-based; conditions: in vivo
[18] = Toxicity in Balb/C nude mouse xenografted with A549/Taxol assessed as effect on kidney at 15 mg/kg, ip measured after 14 days by H and E staining based analysis; assay type: organism-based, A549/TR; conditions: in vivo, 336 h, time 14 day
A2780/Taxol = assay: cells; conditions: Homo sapiens, 48 h
[19] = Acute toxicity in ICR mouse assessed as survival rate at 150 mg/kg, ip measured after 14 days relative to control; assay type: organism-based; conditions: in vivo, time 14 day
[20] = Acute toxicity in ICR mouse assessed as animal death at 100 mg/kg, ip measured after 3 to 14 days; assay type: organism-based; conditions: in vivo, time 3-14 day
MCF7 [21] = assay: Antiproliferative activity against katanin knockdown human MCF7 cells assessed as inhibition of cell growth at 0.2 to 25 nM measured after 48 hrs by MTT assay; assay type: functional, cell-based; conditions: dose 0.2-25 nM
MCF7 [22] = assay: Induction of cell cycle arrest in human MCF7 cells assessed as accumulation of cells at G2/M phase at 10 nM measured after 24 hrs by propidium iodide staining based flow cytometry analysis (reference value: 26%); assay type: functional
[23] = Toxicity in Balb/C nude mouse assessed as abnormalities in liver at 7.5 to 15 mg/kg, ip measured after 14 days by H and E staining based analysis; assay type: organism-based; conditions: in vivo, 336 h, dose 7.5-15 mg/kg, time 14 day
MCF7 [24] = assay: Induction of apoptosis in human MCF7 cells assessed as late apoptotic cells at 20 nM measured after 48 hrs by annexin-FITC and propidium iodide staining based flow cytometry analysis (reference value: 3.93%); assay type: functional
Sus scrofa = species on record: Sus scrofa; assay: (§1) Inhibition of porcine brain tubulin polymerization; conditions: dose 0.4-12 µM
[25] = as §1; parameters: species or system Sus scrofa
MCF7 [26] = assay: Upregulation of histone H3 phosphorylation level in human MCF7 cells at 1 to 10 nM by Western blot analysis; assay type: functional, cell-based; conditions: dose 1-10 nM
MDA-MB-231 [27] = assay: Antitumor activity against human MDA-MB-231 cells xenografted in BALB/c nude mouse model assessed as tumor weight reduction at 7.5 mg/kg, ip measured after 14 days relative to control; assay type: functional; parameters: scale not given: the % may be the effect or the level left; conditions: time 14 day
Tubulin (Homo sapiens) = Tubulin (Homo sapiens) (UniProt P68371+Q9H4B7+P0DPH7+P68366+Q13509+Q71U36+P04350+Q3ZCM7+P07437+P68363+Q9BQE3+Q6PEY2+Q13885+Q9BVA1+Q9BUF5); assay: Inhibition of microtubule assembly in human MCF7 cells assessed as appearance of disorganized fibrous microtubule structure at 1 to 10 nM incubated for 24 hrs by immunofluorescence assay; assay type: cell-based; conditions: dose 1-10 nM
[28] = target: Katanin p60 ATPase-containing subunit A1 (Homo sapiens, UniProt O75449); assay: Binding affinity to N-terminal human Katanin p60 (8 to 229 residues) expressed in Escherichia coli Rosetta (DE3) assessed as dissociation constant by SPR analysis
U-87 MG = assay: Antiproliferative activity against human U-87 MG assessed as inhibition of cell growth measured after 48 hrs by MTT assay; assay type: functional, cell-based, U-87MG ATCC
[29] = Resistance index, ratio of IC50 for antiproliferative activity against cisplatin resistant human A2780/CDDP cells to IC50 for antiproliferative activity against human A2780 cells; assay type: functional
MCF7 [30] = assay: Induction of apoptosis in human MCF7 cells assessed as necrotic cells at 40 nM measured after 48 hrs by annexin-FITC and propidium iodide staining based flow cytometry analysis (reference value: 0.18%); assay type: functional

Chain of Katanin p60 ATPase-containing subunit A1 (O75449 whole entry, the tested form may be a part): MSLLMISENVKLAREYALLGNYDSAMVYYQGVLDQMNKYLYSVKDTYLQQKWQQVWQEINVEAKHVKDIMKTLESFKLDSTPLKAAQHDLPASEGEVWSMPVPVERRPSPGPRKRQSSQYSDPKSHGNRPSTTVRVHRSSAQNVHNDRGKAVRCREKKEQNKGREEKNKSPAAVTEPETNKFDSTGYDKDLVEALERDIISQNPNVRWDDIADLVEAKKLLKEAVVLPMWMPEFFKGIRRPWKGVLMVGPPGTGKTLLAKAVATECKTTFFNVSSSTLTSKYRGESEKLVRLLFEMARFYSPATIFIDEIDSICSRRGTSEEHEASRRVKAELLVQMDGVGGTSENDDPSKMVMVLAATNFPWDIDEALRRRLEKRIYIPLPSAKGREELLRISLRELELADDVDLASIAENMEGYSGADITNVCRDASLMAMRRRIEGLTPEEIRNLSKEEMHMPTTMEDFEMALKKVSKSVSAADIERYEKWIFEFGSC

For `COc1cc(-n2cnc3ccc(-c4ccc(C)c(N)c4)nc32)cc(OC)c1OC`, which Activity [1] is on record?
Its Activity is “Non-Toxic”.

What about the Tmax [2] of the same compound?
The Tmax was 8.4 min.

And the LD50 at 336 h [3]?
Its LD50 at 336 h is 150 mg/kg.

And the half-life at 1 µM [4]?
The half-life at 1 µM was 39 h.

And the Activity [5]?
The Activity was “Non-Toxic”.

And the AUC(0-inf) [6]?
The AUC(0-inf) was 668 ng·h/mL.

What about the Activity [7] of the same compound?
Its Activity is “Non-Toxic”.

What about the IC50 (A549) of the same compound?
Its IC50 is 1 nM.

And the Activity (MCF7 [8])?
Its Activity is “Dose-Dependent Effect”.

What about the IC50 (A549/TR) of the same compound?
The IC50 was 1.6 nM.

What about the Activity [9] of the same compound?
The Activity was “Non-Toxic”.

And the IC50 (MGC-803)?
Its IC50 is 0.5 nM.

And the Activity [10]?
The Activity was “Non-Toxic”.

And the Activity (MDA-MB-231 [11])?
Its Activity is “Dose-Dependent Effect”.

What about the IC50 (PANC-1) of the same compound?
Its IC50 is 4 nM.

What about the MRT inf [12] of the same compound?
The MRT inf was 31.2 min.

And the IC50 (HeLa)?
Its IC50 is 0.9 nM.

And the Activity (MCF7 [13])?
Its Activity is 27.01%.

And the Activity (MCF7 [14])?
Its Activity is “inactive”.

What about the Activity [15] of the same compound?
Its Activity is “Non-Toxic”.

And the inhibition (MDA-MB-231 [16])?
The inhibition was “Active”.

What about the half-life [17] of the same compound?
The half-life was 63.6 min.

And the Activity [18]?
Its Activity is “Non-Toxic”.

And the IC50 (A2780/Taxol)?
The IC50 was 4.8 nM.

What about the survival at 336 h [19] of the same compound?
The survival at 336 h was 50%.

And the Activity [20]?
The Activity was “Non-Toxic”.

And the Activity (MCF7 [21])?
The Activity was “inactive”.

And the Activity (MCF7 [22])?
The Activity was about 67%.

What about the Activity [23] of the same compound?
The Activity was “Non-Toxic”.

And the Activity (MCF7 [24])?
Its Activity is 21.54%.

What about the inhibition (Sus scrofa) of the same compound?
The inhibition was “Dose-Dependent Effect”.

And the IC50 [25]?
The IC50 was 2000 nM.

And the Activity (MCF7 [26])?
Its Activity is “Active”.

What about the Activity (MDA-MB-231 [27]) of the same compound?
The Activity was 63%.

What about the inhibition (Tubulin (Homo sapiens)) of the same compound?
Its inhibition is “Active”.

And the Kd [28]?
The Kd was 1810 nM.

What about the IC50 (U-87 MG) of the same compound?
Its IC50 is 15 nM.

And the “Ratio IC50” value [29]?
The value was 1.35.

What about the Activity (MCF7 [30]) of the same compound?
Its Activity is 0.36%.
